Measurements as given in ChEMBL document CHEMBL4270535, “Facile synthesis of vanillin-based novel bischalcones identifies one that induces apoptosis and displays synergy with Artemisinin in killing chloroquine resistant Plasmodium falciparum” (Eur J Med Chem, 2018).

What was measured:
Plasmodium falciparum [1] = test: Antiplasmodial activity against synchronized ring stage of chloroquine-resistant Plasmodium falciparum INDO infected in human erythrocytes after 48 hrs by SYBR Green 1 dye based fluorescence assay; assay type: functional, organism-based
Plasmodium falciparum [2] = test: Antiplasmodial activity against synchronized ring stage of chloroquine-resistant Plasmodium falciparum Dd2 infected in human erythrocytes after 48 hrs by SYBR Green 1 dye based fluorescence assay; assay type: functional, organism-based; conditions: Dd2, 48 h
[3] = Resistance index, ratio of IC50 for synchronized ring stage of chloroquine-resistant Plasmodium falciparum INDO infected in human erythrocytes to IC50 for synchronized ring stage of chloroquine-sensitive Plasmodium falciparum 3D7 infected in human erythrocytes; assay type: functional
[4] = Resistance index, ratio of IC50 for synchronized ring stage of chloroquine-resistant Plasmodium falciparum Dd2 infected in human erythrocytes to IC50 for synchronized ring stage of chloroquine-sensitive Plasmodium falciparum 3D7 infected in human erythrocytes; assay type: functional
[5] = Selectivity index, ratio of IC50 for human HeLa cells to IC50 for synchronized ring stage of chloroquine-sensitive Plasmodium falciparum 3D7 infected in human erythrocytes; assay type: toxicity, cell-based; conditions: read-out: Ratio IC50
[6] = Selectivity index, ratio of IC50 for mouse L929 cells to IC50 for synchronized ring stage of chloroquine-sensitive Plasmodium falciparum 3D7 infected in human erythrocytes; assay type: toxicity, cell-based; conditions: read-out: Ratio IC50
Plasmodium falciparum [7] = test: Potentiation of artemisinin-induced antiplasmodial activity against synchronized ring stage of chloroquine-sensitive Plasmodium falciparum 3D7 infected in human erythrocytes assessed as fold reduction in artemisinin IC50 relative to artemisinin alone; assay type: functional

C[C@@H]1CC[C@H]2[C@@H](C)C(=O)O[C@@H]3O[C@@]4(C)CC[C@@H]1[C@]32OO4 [ARTEMISININ]
IC50 (Plasmodium falciparum [1]): 15 nM
IC50 (Plasmodium falciparum [2]): 13 nM
Ratio IC50 [3]: 1
Ratio IC50 [4]: 0.87
selectivity ratio [5]: > 200
selectivity ratio [6]: > 200
Ratio IC50 (Plasmodium falciparum [7]): 1.7 - 3.7
